pIC50: −log10 of the molar value.

The assay can be described thus: Inhibition of angiotensin I phosphorylation catalyzed by the protein-tyrosine kinase p56 lck partially purified from bovine thymus.

Take `COc1cc(CNc2ccccn2)cc(OC)c1OC` [Pyridin-2-yl-(3,4,5-trimethoxy-benzyl)-amine]: the pIC50 (as a rule, the negative decadic logarithm of the IC50, by convention in mol/L) is less than 2.54.

For `COc1ccc(/C=C/c2cccnc2)cc1OC` [3-(3,4-dimethoxystyryl)pyridine], the pIC50 is 3.75.

Turning to `COc1cc(C(=O)Nc2ccncc2)cc(OC)c1OC` [3,4,5-Trimethoxy-N-pyridin-4-yl-benzamide], the pIC50 is less than 2.56.

In turn, `COc1ccc(CCc2cccnc2)cc1OC` [3-[2-(3,4-Dimethoxy-phenyl)-ethyl]-pyridine] gave a pIC50 of 2.88.

Regarding `COc1cc(CNc2ccccn2)cc(OC)c1` [(3,5-Dimethoxy-benzyl)-pyridin-2-yl-amine], the pIC50 was less than 2.48.

The molecule `C(=C\c1ccccn1)/c1ccccn1` [2-[(E)-2-pyridin-2-ylvinyl]pyridine] gave a pIC50 of 2.91.

`COc1cc(OC)cc(C(=O)Nc2ccncc2)c1` [3,5-Dimethoxy-N-pyridin-4-yl-benzamide]: the pIC50 is 2.51.

Molecule `O=C(Nc1ccncc1)c1ccncc1` [N-Pyridin-4-yl-isonicotinamide] showed a pIC50 of 2.63.

Take `COc1cc(OC)cc(C(=O)Nc2ccccn2)c1` [3,5-Dimethoxy-N-pyridin-2-yl-benzamide]: the pIC50 was 3.69.

Molecule `COc1ccc(/C=C/c2cccnc2)cc1` [3-[(E)-2-(4-Methoxy-phenyl)-vinyl]-pyridine] gave a pIC50 of less than 2.42.

As for `O=C(Nc1ccncc1)c1cccnc1`, the pIC50 is 2.67.

In the case of `COc1cc(C(=O)Nc2cccnc2)cc(OC)c1OC` [3,4,5-Trimethoxy-N-pyridin-3-yl-benzamide], the pIC50 was 3.00.

In turn, `c1cc(CCc2ccncc2)ccn1` [4-(2-pyridin-4-ylethyl)pyridine] gave a pIC50 of 2.54.

The molecule `COc1cc(CCc2cccnc2)cc(OC)c1OC` [3-[2-(3,4,5-Trimethoxy-phenyl)-ethyl]-pyridine] showed a pIC50 of less than 2.53.

Turning to `COc1ccc(/C=C/c2ccccn2)cc1OC` [2-[(E)-2-(3,4-Dimethoxy-phenyl)-vinyl]-pyridine], the pIC50 was 3.08.

The values above are taken from BindingDB's records for doi:10.1016/S0960-894X(00)80254-1 (1991).
